According to PubChem BioAssay (NCI):
Where “and” joins values, the source holds several entries; their conditions need not be identical. Equal values may be shown once.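 Dose response: 5 concentrations. Exposure: 48 h. Format: 96-well plates. Endpoint: linear interpolation; highest concentration if not reached. At the GI50, growth is halved. At the TGI there is no net growth.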

Key:
Experiment in all cases: growth of human tumour cells (NCI), 48 h
SK-MEL-28 melanoma = test system: SK-MEL-28 melanoma
OVCAR-3 ovarian = test system: OVCAR-3 ovarian
DMS 114 small cell lung = test system: DMS 114 small cell lung
SK-MEL-5 melanoma = test system: SK-MEL-5 melanoma
HCT-15 colon = test system: HCT-15 colon
A549 NSCLC = test system: A549 NSCLC
RXF 393 renal = test system: RXF 393 renal
MCF7 breast = test system: MCF7 breast
SNB-78 CNS = test system: SNB-78 CNS
SN12C renal = test system: SN12C renal

| SMILES | GI50 (SK-MEL-28 melanoma) [µM] | TGI (SK-MEL-28 melanoma) | TGI (OVCAR-3 ovarian) | GI50 (DMS 114 small cell lung) [µM] | TGI (DMS 114 small cell lung) | GI50 (SK-MEL-5 melanoma) [µM] | TGI (SK-MEL-5 melanoma) | TGI (HCT-15 colon) [µM] | GI50 (A549 NSCLC) [µM] | TGI (A549 NSCLC) [µM] | GI50 (RXF 393 renal) [µM] | TGI (RXF 393 renal) | GI50 (MCF7 breast) [µM] | TGI (MCF7 breast) [µM] | GI50 (SNB-78 CNS) [µM] | TGI (SNB-78 CNS) | GI50 (SN12C renal) [µM] | TGI (SN12C renal) |
| --- | --- | --- | --- | --- | --- | --- | --- | --- | --- | --- | --- | --- | --- | --- | --- | --- | --- | --- |
| COc1cccc2c1[C@H]1CO[C@H]3C4C[C@H](C(=O)O)C([C@@H](C2)N13)N4C (some centres not stated) | 0.621 | 4.91 µM and 1.65 µM | 2.99 µM and 3.94 µM | 0.187 | 4.66 µM and 0.803 µM | 0.588 | 4.31 µM and 1.23 µM | 6.12 | 10.1 | 99 | 0.136 | 2.42 µM and 0.576 µM | 0.296 | 10 | 0.388 | 9.27 µM and > 30.5 µM | 0.884 | 8.32 µM and > 35.8 µM |
| O=NN(CCCl)C(=O)NC1CCC(=O)NC1=O (configuration not stated) |  | 1030 µM | > 1160 µM |  | 814 µM |  | 273 µM | 846 |  | 811 |  | 583 µM |  | > 1190 |  | 864 µM |  |  |
| O=[N+]([O-])c1ccc2c(Nc3ccccc3-c3ccccc3Nc3c4ccccc4nc4cc([N+](=O)[O-])ccc34)c3ccccc3nc2c1 |  | 59.1 µM | 29.1 µM |  | 27.3 µM |  | 8.09 µM | 17.6 |  | > 56.2 |  | 17.4 µM |  | 39.3 |  | > 100 µM |  | 58.1 µM |
| Cn1nnc2c(C(N)=O)ncn2c1=O |  | > 100 µM | > 100 µM |  | > 100 µM |  | > 100 µM | > 100 |  | > 100 |  | > 100 µM |  | > 100 |  | > 100 µM |  | > 100 µM |
